The source of these data is patent US20240366589A1, “NHE3-BINDING COMPOUNDS AND METHODS FOR INHIBITING PHOSPHATE TRANSPORT” (Ardelyx, Inc., priority 2013, published 2024).

Assay [1] has as its system intestinal phosphate uptake. The assay is described as follows: Pharmacodynamic study with 33P oral challenge in normal function rats. It counts as in vivo, rat. As to conditions: 8 mM Pi with 33P, 10 mg/kg, dihydrochloride salts, FIG. 1A. As to the method: The compounds identified as Cpds 003, 004, and 005 (from Table E4, as their dihydrochloride salts) were tested for the ability to block intestinal phosphate uptake in rats. Rats were orally challenged with dosing solutions composed of 5 ml/kg (˜1.3 ml) of 8 mM Pi with ^33P and +/−10 mg/kg of test compound. Also included were dosing solutions further composed of either (i) 75 mM glucose+4 mM Ca or (ii) 4 mM Ca.

In another assay the target is T1, human NaP2b (SLC34A2) (Homo sapiens, UniProt O95436).
T1 construct: host or cells: HEK293 cells (ATCC), Lipofectamine 2000, transient
T1 sequence (O95436 1-690): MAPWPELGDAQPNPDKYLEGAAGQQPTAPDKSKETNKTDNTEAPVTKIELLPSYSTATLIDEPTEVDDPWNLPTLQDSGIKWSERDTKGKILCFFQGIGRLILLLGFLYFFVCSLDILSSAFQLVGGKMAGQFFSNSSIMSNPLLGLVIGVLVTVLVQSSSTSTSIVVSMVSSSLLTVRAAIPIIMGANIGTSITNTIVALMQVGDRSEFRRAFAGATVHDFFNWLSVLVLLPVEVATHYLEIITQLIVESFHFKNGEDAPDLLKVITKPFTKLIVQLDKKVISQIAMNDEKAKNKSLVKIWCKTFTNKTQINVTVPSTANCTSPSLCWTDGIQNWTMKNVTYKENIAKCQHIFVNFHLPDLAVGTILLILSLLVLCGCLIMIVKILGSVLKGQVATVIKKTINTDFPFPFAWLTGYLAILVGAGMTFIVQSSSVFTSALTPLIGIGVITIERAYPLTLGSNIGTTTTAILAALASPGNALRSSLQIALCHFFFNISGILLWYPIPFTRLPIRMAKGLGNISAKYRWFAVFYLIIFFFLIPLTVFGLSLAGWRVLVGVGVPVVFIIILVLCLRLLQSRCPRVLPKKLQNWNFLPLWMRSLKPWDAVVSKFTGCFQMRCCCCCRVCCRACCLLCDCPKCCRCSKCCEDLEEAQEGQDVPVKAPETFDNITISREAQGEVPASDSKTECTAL
The assay is described as follows: Cell-based assay of NaP2b activity (33P uptake, transfected HEK293 cells), human NaP2b isoform a. The settings on record: Table E5; HEK293, 33P uptake; dihydrochloride salt. On the procedure: Cell-based assay of NaP2b activity. The rate of phosphate (Pi) uptake into cells was measured using a modification of a literature method (see Mohrmann et al. Am. J Phys. 250(3 pt 1):G323-30, 1986). Briefly, HEK293 cells were transiently transfected with an expression clone encoding either rat or human NaP2b. The next day, transfected cells were treated with a pharmacological agent to minimize endogenous PiT-mediated phosphate transport activity, such that the only remaining sodium-dependent phosphate transport activity is that which was bestowed by introduction of the NaP2b gene. Cells were incubated with radioactive inorganic phosphate in the presence or absence of varying concentrations of test compound. After a short time, cells were washed, harvested, and the amount of hot phosphate taken up in the cells determined by liquid scintillation counting.
HEK293 cells were obtained from the American Type Culture collection and propagated per their instructions. […]
Cells were seeded into 96-well plates at 25,000 cells/well and cultured overnight. […] Cells were lysed by addition of 20 μL 0.1% Tween 80 followed by 100 μL scintillation fluid, and counted using a TopCount (Perkin Elmer). The pIC50 (the negative log of the IC50) values of the test compounds were calculated using GraphPad Prism.

The test system of assay [2] is uremic rat model of CKD featuring vascular calcification. The assay is described as follows: Rat model of uremia-associated vascular calcification (5/6 nephrectomy, calcitriol, 0.9% P diet). The format is in vivo. The text has this:
Chronic kidney disease (CKD) has multiple pathogenic mechanisms, and advanced CKD is often characterized by disordered mineral metabolism (e.g., hyperphosphatemia, hypercalcemia) and vascular calcification. Studies were thus performed to test the effectiveness of the dihydrochloride salt of Cpd 002 (from Table E4, as the dihydrochloride salt) in a uremic rat model of CKD featuring vascular calcification. This model is characterized by renal insufficiency and regular active Vitamin D3 administration to promote hyperphosphatemia and vascular calcification (see Lopez et al., J. Am. Soc. Nephrol. 17:795-804, 2006). The study utilized Spraque-Dawley rats treated as follows: 5/6th nephrectomy by excision; regular calcitriol administration (active vitamin D3) 80 ng/kg i.p. 3/week; and fed a purified 0.9% P diet (inorganic phosphorus).
Rats were stratified into two experimental groups by serum creatinine levels of 0.8 to 1.5 mg/dl and body weight, fed drug-in-chow with powdered vehicle diet or the same diet with Cpd 002 (0.065 mg/g chow) mixed-in, and monitored for weekly body weight and selected serum parameters, daily clinical observations, and endpoint calcification. The study design is illustrated in FIG. 2.
Selected experimental groups were fed vehicle (n=12) or Cpd 002 (n=12) at enrollment (day 0).

The subject of assay [3] is phosphorus and calcium levels in the urine of rats. The assay is described as follows: Urinary excretion of phosphate and calcium in rats (16 h overnight urine). The format is in vivo, rat.
Setting [4] is: endpoint day 27, 0.065 mg/g chow, vs vehicle.
The mark [5] stands for this setting: endpoint, 0.065 mg/g chow, vs vehicle.
[6] abbreviates: organ weight/body weight, 0.065 mg/g chow, vs vehicle.
Where [7] appears, read: relative to vehicle-only control, 0.1-3.0 mg/kg, 16 h urine.

Entries after “also recorded” stand apart in the source; their conditions may differ. Bounds are passed on as bounds.

In the case of `CN1Cc2c(Cl)cc(Cl)cc2[C@@H](c2cccc(S(=O)(=O)NCCOCCOCCNC(=O)NCCCCNC(=O)NCCOCCOCCNS(=O)(=O)c3cccc([C@H]4CN(C)Cc5c(Cl)cc(Cl)cc54)c3)c2)C1` [Cpd 004], in assay [1], the “Pi uptake after 33P oral challenge” value is on record as “as potent at reducing Pi uptake as a persistent inhibitor such as Cpd 003”.
As for `CN1Cc2c(Cl)cc(Cl)cc2[C@H](c2cccc(S(=O)(=O)NCCOCCOCCNC(=O)NCCCCNC(=O)NCCOCCOCCNS(=O)(=O)c3cccc([C@@H]4CN(C)Cc5c(Cl)cc(Cl)cc54)c3)c2)C1` [Cpd 002], the “pIC50 Human Nap2B” value on human NaP2b (SLC34A2) is under 4.5. In assay [2] (0.065 mg/g chow, vs vehicle), the endpoint plasma aldosterone result is on record as “aldosterone increase”. The plasma creatinine result in assay [2] (endpoint day 27, 0.065 mg/g chow, dihydrochloride salt, vs vehicle) was “reduced plasma creatinine”. Also, in assay [2] (setting [4]), the “plasma FGF-23” value is listed as “reduced plasma FGF-23” and the plasma phosphorus result is “reduced plasma phosphorus; also recorded: anti-hyperphosphatemic effects”. In addition, in assay [2] (setting [5]), the “calcium and phosphorus in the stomach (soft tissue calcification)” value is “reduced calcium and phosphorus in the stomach”; the “vascular calcification as aortic mineral content” value is “reduced vascular calcification; also recorded: reduce associated vascular calcification”. Further, in assay [2] (setting [6]), the “endpoint heart weight (heart hypertrophy)” value was “lessened; also recorded: reduce both heart hypertrophy and renal hypertrophy”; the “endpoint kidney remnant weight (renal hypertrophy)” value is “lessened; also recorded: reduce both heart hypertrophy and renal hypertrophy”. In assay [2] (treatment group vs vehicle), the moribundity entry is given as “decreased moribundity” and the mortality outcome is reported as “trend toward improved mortality outcome”. Besides, the urine phosphorus mass entry in assay [3] (increasing dosages, relative to 48 mg/kg Renvela) is on record as “significantly reduced”. In assay [3] (setting [7]), the urine calcium mass result is listed as “reduced” and the urine phosphorus mass result is recorded as “reduced”.
